Results as given in ChEMBL document CHEMBL4033638, “Effect of natural and semi-synthetic cadinanes from Heterotheca inuloides on NF-κB, Nrf2 and STAT3 signaling pathways and evaluation of their in vitro cytotoxicity in human cancer cell lines” (Bioorg Med Chem, 2017).
Activity calls are given as the source filed them. The rule behind the calls is not given here.

What was measured:
[1] = Inhibition of TNFalpha-stimulated NFkappaB (unknown origin) expressed in mouse NIH-3T3-KBFLuc cells at 50 uM after 6 hrs by luciferase reporter gene assay relative to control; type: cell-based; conditions: Homo sapiens
[2] = target: T1, Nuclear factor erythroid 2-related factor 2 (Homo sapiens) (UniProt Q16236); experiment: Activation of Nrf2 in human HaCaT-ARE-Luc cells at 50 uM after 6 hrs by luciferase reporter gene assay relative to control; type: cell-based
T1 sequence (whole entry): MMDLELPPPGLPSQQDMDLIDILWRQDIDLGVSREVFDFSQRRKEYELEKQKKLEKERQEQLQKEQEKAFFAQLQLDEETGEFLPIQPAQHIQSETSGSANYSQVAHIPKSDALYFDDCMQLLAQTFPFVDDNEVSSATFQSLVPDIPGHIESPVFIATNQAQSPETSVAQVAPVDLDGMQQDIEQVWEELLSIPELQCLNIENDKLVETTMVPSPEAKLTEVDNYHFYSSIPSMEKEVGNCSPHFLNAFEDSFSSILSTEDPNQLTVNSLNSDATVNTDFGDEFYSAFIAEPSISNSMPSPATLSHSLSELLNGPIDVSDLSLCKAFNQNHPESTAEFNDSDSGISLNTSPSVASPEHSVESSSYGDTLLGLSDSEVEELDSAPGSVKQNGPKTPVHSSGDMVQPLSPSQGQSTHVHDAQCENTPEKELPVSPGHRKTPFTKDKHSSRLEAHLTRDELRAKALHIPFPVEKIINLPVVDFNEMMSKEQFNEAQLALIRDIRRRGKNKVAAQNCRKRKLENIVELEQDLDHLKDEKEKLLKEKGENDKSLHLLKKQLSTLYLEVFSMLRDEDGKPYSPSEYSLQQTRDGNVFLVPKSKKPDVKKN

K562 = experiment: Antiproliferative activity against human K562 cells at 50 uM after 48 hrs by sulforhodamine B assay relative to control; type: functional; conditions: for inhibition at 50 µM: K562, 48 h
SK-LU-1 [3] = experiment: Antiproliferative activity against human SK-LU-1 cells at 50 uM after 48 hrs by sulforhodamine B assay relative to control; type: functional; conditions: for inhibition at 50 µM: SK-LU-1, 48 h
PC-3 [4] = experiment: Antiproliferative activity against human PC3 cells at 50 uM after 48 hrs by sulforhodamine B assay relative to control; type: functional; conditions: PC-3, 48 h
HCT-15 [5] = experiment: Antiproliferative activity against human HCT15 cells at 50 uM after 48 hrs by sulforhodamine B assay relative to control; type: functional; conditions: for inhibition at 50 µM: HCT-15, 48 h
MCF7 = experiment: Antiproliferative activity against human MCF7 cells at 50 uM after 48 hrs by sulforhodamine B assay relative to control; type: functional; conditions: MCF7, 48 h
[6] = target: Signal transducer and activator of transcription 3 (Homo sapiens) (UniProt P40763); experiment: Inhibition of IFNgamma-stimulated STAT3 (unknown origin) activation expressed in human HeLa cells at 50 uM after 6 hrs by luciferase reporter gene assay relative to control; type: cell-based
U-251 = experiment: Antiproliferative activity against human U251 cells at 50 uM after 48 hrs by sulforhodamine B assay relative to control; type: functional; conditions: for inhibition at 50 µM: U-251, 48 h
PC-3 [7] = experiment: Antiproliferative activity against human PC3 cells after 48 hrs by sulforhodamine B assay; type: functional, cell-based; conditions: PC-3, 48 h
SK-LU-1 [8] = experiment: Antiproliferative activity against human SK-LU-1 cells after 48 hrs by sulforhodamine B assay; type: functional, cell-based; conditions: SK-LU-1, 48 h
HCT-15 [9] = experiment: Antiproliferative activity against human HCT15 cells after 48 hrs by sulforhodamine B assay; type: functional, cell-based; conditions: HCT-15, 48 h

Signal transducer and activator of transcription 3 (Homo sapiens), sequence (P40763 whole entry): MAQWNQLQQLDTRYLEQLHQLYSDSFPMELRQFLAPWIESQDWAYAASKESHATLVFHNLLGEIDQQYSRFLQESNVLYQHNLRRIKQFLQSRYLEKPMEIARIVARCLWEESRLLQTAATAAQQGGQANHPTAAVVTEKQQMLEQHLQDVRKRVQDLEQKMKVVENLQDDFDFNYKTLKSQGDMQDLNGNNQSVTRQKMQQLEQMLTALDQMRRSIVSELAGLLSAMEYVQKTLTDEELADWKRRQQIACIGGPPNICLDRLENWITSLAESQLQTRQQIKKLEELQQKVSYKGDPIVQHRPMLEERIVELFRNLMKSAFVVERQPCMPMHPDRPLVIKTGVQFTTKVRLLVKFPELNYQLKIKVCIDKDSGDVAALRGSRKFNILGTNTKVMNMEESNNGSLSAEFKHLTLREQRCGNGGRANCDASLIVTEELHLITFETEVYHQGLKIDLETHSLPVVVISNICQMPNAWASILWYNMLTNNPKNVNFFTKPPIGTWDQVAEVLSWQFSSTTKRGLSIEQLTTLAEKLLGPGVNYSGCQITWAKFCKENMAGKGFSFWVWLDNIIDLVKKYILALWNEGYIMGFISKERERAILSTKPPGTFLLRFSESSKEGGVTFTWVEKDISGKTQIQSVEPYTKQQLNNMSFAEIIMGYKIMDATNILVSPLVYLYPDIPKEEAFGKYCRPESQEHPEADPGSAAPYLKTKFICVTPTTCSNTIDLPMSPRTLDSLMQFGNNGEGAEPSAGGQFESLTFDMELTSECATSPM

Q: With `Cc1cc2c(C(C)C)ccc(C)c2cc1OC(=O)c1ccccc1` as the compound, how does the inhibition [1] read?
A: The inhibition was 34.5%.

Q: And the fold change (FC) [2]?
A: Its fold change (FC) is 1.9.

Q: And the inhibition at 50 µM (K562)?
A: Its inhibition at 50 µM is 44.3%.

Q: What about the inhibition at 50 µM (SK-LU-1 [3]) of the same compound?
A: The inhibition at 50 µM was 63%.

Q: What about the inhibition at 50 µM (PC-3 [4]) of the same compound?
A: Its inhibition at 50 µM is 21.2%.

Q: What about the inhibition at 50 µM (HCT-15 [5]) of the same compound?
A: The inhibition at 50 µM was 72%.

Q: What about the inhibition at 50 µM (MCF7) of the same compound?
A: Its inhibition at 50 µM is 51%.

Q: And the inhibition [6]?
A: The inhibition was 0.5%.

Q: And the inhibition at 50 µM (U-251)?
A: Its inhibition at 50 µM is 41.5%.

Q: Which results are given for `CC1=CC[C@H](C(C)C)c2cc(C)c(OC(=O)c3cccc(Cl)c3)cc21`?
A: inhibition [1]: 22.5%; fold change (FC) [2]: 1.4; inhibition (K562): inactive; inhibition at 50 µM (SK-LU-1 [3]): 30.6%; inhibition at 50 µM (PC-3 [4]): 23.4%; inhibition at 50 µM (HCT-15 [5]): 5.3%; inhibition at 50 µM (MCF7): 40.4%; inhibition [6]: 1.5%; inhibition at 50 µM (U-251): 0.9%

Q: With `Cc1cc2c(C(C)C)ccc(C)c2cc1OC(=O)c1cccc(C(F)(F)F)c1` as the compound, how does the inhibition [1] read?
A: The inhibition was 4.8%.

Q: What about the fold change (FC) [2] of the same compound?
A: Its fold change (FC) is 1.9.

Q: And the inhibition (K562)?
A: Its inhibition is “inactive”.

Q: And the inhibition at 50 µM (SK-LU-1 [3])?
A: The inhibition at 50 µM was 17.3%.

Q: And the inhibition at 50 µM (PC-3 [4])?
A: The inhibition at 50 µM was 26.7%.

Q: What about the inhibition (HCT-15 [5]) of the same compound?
A: The inhibition was “inactive”.

Q: What about the inhibition at 50 µM (MCF7) of the same compound?
A: Its inhibition at 50 µM is 41.5%.

Q: And the inhibition [6]?
A: The inhibition was 2.7%.

Q: And the inhibition (U-251)?
A: Its inhibition is “inactive”.

Q: With `CC1=C[C@](O)(C(C)C)C(=O)c2cc(C)c(O)cc21` as the compound, how does the inhibition [1] read?
A: The inhibition was 28.8%.

Q: And the fold change (FC) [2]?
A: Its fold change (FC) is 1.3.

Q: What about the inhibition [6] of the same compound?
A: The inhibition was 2.2%.

Q: What does the source list for `CC1=CC[C@H](C(C)C)c2cc(C)c(OC(=O)c3cccc(C(F)(F)F)c3)cc21`?
A: inhibition [1]: 4.4%; fold change (FC) [2]: 1.9; inhibition at 50 µM (K562): 45.5%; inhibition at 50 µM (SK-LU-1 [3]): 18.3%; inhibition at 50 µM (PC-3 [4]): 25.4%; inhibition at 50 µM (HCT-15 [5]): 15%; inhibition at 50 µM (MCF7): 86%; inhibition [6]: 1.7%; inhibition at 50 µM (U-251): 29.3%

Q: Which inhibition [1] does the source give for `COc1ccc(C(=O)Oc2cc3c(cc2C)[C@@H](C(C)C)CC=C3C)cc1` here?
A: Its inhibition is 49.2%.

Q: And the fold change (FC) [2]?
A: Its fold change (FC) is 1.9.

Q: What about the inhibition at 50 µM (K562) of the same compound?
A: The inhibition at 50 µM was 46.5%.

Q: And the inhibition at 50 µM (SK-LU-1 [3])?
A: Its inhibition at 50 µM is 18.6%.

Q: What about the IC50 (PC-3 [7]) of the same compound?
A: The IC50 was 32.2 µM.

Q: And the inhibition at 50 µM (PC-3 [4])?
A: The inhibition at 50 µM was 60.6%.

Q: What about the inhibition at 50 µM (HCT-15 [5]) of the same compound?
A: Its inhibition at 50 µM is 30.8%.

Q: And the inhibition at 50 µM (MCF7)?
A: The inhibition at 50 µM was 80.1%.

Q: What about the inhibition [6] of the same compound?
A: The inhibition was 1.8%.

Q: What about the inhibition at 50 µM (U-251) of the same compound?
A: The inhibition at 50 µM was 37%.

Q: Which results are given for `CC1=C2CCC(C(=O)O)=C[C@@H]2[C@@H](C(C)C)CC1`?
A: inhibition [1]: 5.9%; fold change (FC) [2]: 1.4; inhibition [6]: 3.8%

Q: Which inhibition [1] does the source give for `CC(C)[C@H]1CC[C@@](C)(O)c2ccc(C(=O)O)cc21` here?
A: The inhibition was 6.7%.

Q: And the fold change (FC) [2]?
A: Its fold change (FC) is 1.7.

Q: And the inhibition [6]?
A: Its inhibition is 3.8%.

Q: With `CC1=CC[C@H](C(C)C)[C@H]2C=C(C(=O)O)CC=C12` as the compound, how does the inhibition [1] read?
A: Its inhibition is 12.3%.

Q: And the fold change (FC) [2]?
A: Its fold change (FC) is 1.9.

Q: What about the inhibition [6] of the same compound?
A: The inhibition was 3.6%.

Q: Which results are given for `COc1cccc(C(=O)Oc2cc3c(C)ccc(C(C)C)c3cc2C)c1`?
A: inhibition [1]: 2.8%; fold change (FC) [2]: 1.5; inhibition at 50 µM (K562): 14.2%; inhibition at 50 µM (SK-LU-1 [3]): 30.6%; inhibition at 50 µM (PC-3 [4]): 12.5%; inhibition at 50 µM (HCT-15 [5]): 35.2%; inhibition at 50 µM (MCF7): 31.8%; inhibition [6]: 0.8%; inhibition (U-251): inactive

Q: Which IC50 (SK-LU-1 [8]) does the source give for `CC1=CC[C@H](C(C)C)c2cc(C)c(OC(=O)c3ccc([N+](=O)[O-])cc3)cc21` here?
A: The IC50 was 42.9 µM.

Q: And the inhibition [1]?
A: Its inhibition is 7.2%.

Q: What about the fold change (FC) [2] of the same compound?
A: Its fold change (FC) is 8.5.

Q: What about the inhibition at 50 µM (K562) of the same compound?
A: The inhibition at 50 µM was 89%.

Q: What about the inhibition at 50 µM (SK-LU-1 [3]) of the same compound?
A: Its inhibition at 50 µM is 47.5%.

Q: And the IC50 (PC-3 [7])?
A: Its IC50 is 42.5 µM.

Q: What about the inhibition at 50 µM (PC-3 [4]) of the same compound?
A: The inhibition at 50 µM was 36.7%.

Q: And the inhibition at 50 µM (HCT-15 [5])?
A: The inhibition at 50 µM was 67.8%.

Q: What about the IC50 (HCT-15 [9]) of the same compound?
A: The IC50 was 56.3 µM.

Q: What about the inhibition at 50 µM (MCF7) of the same compound?
A: Its inhibition at 50 µM is 72.9%.

Q: And the inhibition [6]?
A: Its inhibition is 1.6%.

Q: And the inhibition at 50 µM (U-251)?
A: Its inhibition at 50 µM is 16.8%.

Q: For `CC1=CC[C@H](C(C)C)c2cc(C)c(OC(=O)c3ccc(C(F)(F)F)cc3)cc21`, which inhibition [1] is on record?
A: The inhibition was 25.4%.

Q: What about the fold change (FC) [2] of the same compound?
A: Its fold change (FC) is 1.6.

Q: And the inhibition at 50 µM (K562)?
A: Its inhibition at 50 µM is 9%.

Q: And the inhibition (SK-LU-1 [3])?
A: The inhibition was “inactive”.

Q: And the inhibition at 50 µM (PC-3 [4])?
A: The inhibition at 50 µM was 12.3%.

Q: And the inhibition at 50 µM (HCT-15 [5])?
A: Its inhibition at 50 µM is 6.4%.

Q: What about the inhibition at 50 µM (MCF7) of the same compound?
A: Its inhibition at 50 µM is 40.4%.

Q: And the inhibition [6]?
A: Its inhibition is 2.5%.

Q: What about the inhibition at 50 µM (U-251) of the same compound?
A: Its inhibition at 50 µM is 14.7%.

Q: Which inhibition [1] does the source give for `Cc1ccc2c(c1)C(=O)C(C(C)C)=C[C@@]2(C)O` here?
A: Its inhibition is 11.1%.

Q: And the fold change (FC) [2]?
A: The fold change (FC) was 1.7.

Q: And the inhibition [6]?
A: Its inhibition is 2.4%.
